# Assay results reported in US12208088B2 (Genentech, Inc., priority 2018, dated 2025).
# Target: HPK1 (Homo sapiens (Human), UniProt Q92918)
# Assay: HPK1 Lantha binding assay ("Lanth")
# Settings: binding assays; Morrison Ki fit
# Experimental: Example B2: HPK1 Lantha Binding Assay (“Lanth”)
# Procedure: I. Compound Dilution:
# The compounds to be tested were diluted by preparing 12.5 uL/well of 5 mM compound (100×) in columns 2 and 13 and 10 ul/well of DMSO in columns 3-12, 14-23, and wells A1-H1 and I24-P24 of the compound plate using a Bravo liquid handling platform. For the reference compound, the top concentration was 1 mM. To the plate was added 10 ul 2 mM staurosporine in wells J1-P1 and A24-H24. A 11 point 5-fold compound serial dilution was performed using the Bravo liquid handling platform. From the plate were transferred 2.5 ul of the solutions from column 2 and column 13 to the 10 ul of DMSO in columns 3 and 14 & so on. The compound plate was centrifuged at 2500 rpm for 1 min. From the compound plate was transferred 80 nl of the compounds into an assay plate using the Echo liquid handler system. One compound plate makes two assay plates. Each assay plate is sealed and stored in an N2 cabinet.
# The following assay concentrations and times were used: 2 nM HPK1, 2 nM Eu-Anti-GST Ab, and 15 nM Tracer222, with 60 min incubation time.
# III. HPK Lantha Binding Assay:
# For the binding assay, 4 ul 2×HPK1 and Eu-anti-GST antibody were added to each well of the assay plate using a Multidrop reagent dispenser. The solutions were incubated in a 23 C incubator for 1 h. To each well of the assay plate was added 4 ul 2× Tracer-222 using a Multidrop reagent dispenser. The solutions were again incubated in a 23 C incubator for 1 h. The results of the assay were read using an Envision plate reader with the following parameters: TR_FRET, 340 ex/615 and 665em; 100 usec Delay; and 200 usec integration.
# Compound Ki was analyzed using Morrison ki fit model in XL-fit • a. fit=(1−((((E+x)+(Ki*(1+(S/Kd))))−(((((E+x)+(Ki*(1+(S/Kd))))^2)−((4*E)*x))^0.5))/(2*E))) • res=(y−fit) • b. Parameters: • E=enzyme concentration • S=Tracer222 concentration, Kd=Tracer222 Kd • All measurements reported using the same units (uM)
# Exemplary compounds were tested in the binding assays.
# Chain of HPK1 (Q92918 1-346 limits assumed): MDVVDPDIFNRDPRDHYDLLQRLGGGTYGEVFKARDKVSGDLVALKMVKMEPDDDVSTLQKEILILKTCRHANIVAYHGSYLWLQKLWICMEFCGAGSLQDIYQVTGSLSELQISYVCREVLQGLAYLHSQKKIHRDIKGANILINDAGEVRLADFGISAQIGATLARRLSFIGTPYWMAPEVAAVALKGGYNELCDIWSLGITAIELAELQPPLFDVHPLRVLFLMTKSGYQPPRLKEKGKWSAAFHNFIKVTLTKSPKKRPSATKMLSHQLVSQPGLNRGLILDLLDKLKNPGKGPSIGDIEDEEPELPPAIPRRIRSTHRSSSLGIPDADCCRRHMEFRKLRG
row,Ki [nM],Structure (SMILES)
1,7.16,"CC[C@]1(C(N)=O)CC[C@@]2(CNc3ncc(-c4ccc(N)c(C(=O)N(C)C)c4F)c(Cl)c32)C1 (relative stereo) [Compound 153a, (1R,3S)-5′-(4-Amino-3-(dimethylcarbamoyl)-2-fluorophenyl)-4′-chloro-3-ethyl-1′,2′-dihydrospiro[cyclopentane-1,3′-pyrrolo[2,3-b]pyridine]-3-carboxamide]"
2,259,"CN(C)C(=O)c1cc(-c2cnc3c(c2)C2(CC2)CN3)ccc1CO [Compound 18, 5-(1′,2′-dihydrospiro[cyclopropane-1,3′-pyrrolo[2,3-b]pyridin]-5′-yl)-2-(hydroxymethyl)-N,N-dimethylbenzamide]"
3,2.2,"CN(C)C(=O)c1c(N)ccc(-c2cnc3c(c2Cl)C2(CCC2)CN3)c1F [Compound 37, 6-Amino-3-(4′-chloro-1′,2′-dihydrospiro[cyclobutane-1,3′-pyrrolo[2,3-b]pyridin]-5′-yl)-2-fluoro-N,N-dimethylbenzamide]"
4,11,"C[C@H](c1cnn(C)c1)N(C)C(=O)c1cccc(-c2cnc3c(c2)C2(CC2)CN3)c1F (single isomer, unassigned) [Compound 229a]"
5,1.41,"CC(C)[C@@H]1C[C@]12CNc1ncc(-c3ccc(N)c(C(=O)N(C)C)c3F)c(Cl)c12 (single isomer, unassigned) [Compound 193b]"
6,267,"CN(C)C(=O)c1ccc(-c2cnc3c(c2Cl)C2(CC=CC2)CN3)cc1F [Compound 205, 4-(4′-Chloro-1′,2′-dihydrospiro[cyclopentane-1,3′-pyrrolo[2,3-b]pyridin]-3-en-5′-yl)-2-fluoro-N,N-dimethylbenzamide]"
7,23,"CN(C)C(=O)c1c(N)ccc(-c2cnc3c(c2Cl)[C@]2(CC[C@H](N4CCNC4=O)C2)CN3)c1F (relative stereo) [Compound 115a, 6-Amino-3-((1R,3S)-4′-chloro-3-(2-oxoimidazolidin-1-yl)-1′,2′-dihydrospiro[cyclopentane-1,3′-pyrrolo[2,3-b]pyridin]-5′-yl)-2-fluoro-N,N-dimethylbenzamide]"
8,173,"O=C(c1ccc(-c2cnc3c(c2Cl)C2(CC=CC2)CN3)cc1Cl)N1CCC(O)CC1 [Compound 230, (2-Chloro-4-(4′-chloro-1′,2′-dihydrospiro[cyclopentane-1,3′-pyrrolo[2,3-b]pyridin]-3-en-5′-yl)phenyl)(4-hydroxypiperidin-1-yl)methanone]"
9,11.7,"Cc1c(CC#N)ccnc1-c1cccc(-c2cnc3c(c2)C2(CC2)CN3)c1 [Compound 242, 2-(2-(3-(1′,2′-Dihydrospiro[cyclopropane-1,3′-pyrrolo[2,3-b]pyridin]-5′-yl)phenyl)-3-methylpyridin-4-yl)acetonitrile]"
10,4.2,"Cn1cc([C@H]2CCCCN2C(=O)c2cccc(-c3cnc4c(c3)C3(CC3)CN4)c2F)cn1 (single isomer, unassigned) [Compound 175a]"
11,44.8,"CN(C)C(=O)c1c(N)ccc(-c2cnc3c(c2Cl)[C@]2(CC[C@@H](S(C)(=O)=O)CC2)CN3)c1F [Compound 273a, 6-Amino-3-((1r,4r)-4′-chloro-4-(methylsulfonyl)-1′,2′-dihydrospiro[cyclohexane-1,3′-pyrrolo[2,3-b]pyridin]-5′-yl)-2-fluoro-N,N-dimethylbenzamide]"
12,157,"CN(C)C(=O)c1c(N)ccc(-c2cnc3c(c2Cl)[C@]2(CC[C@H](N4CCCC4=O)C2)CN3)c1F (single isomer, unassigned) [Compound 143a]"
13,53.2,"Cc1cc(CC#N)nn1-c1cccc(-c2cnc3c(c2Cl)C2(CC=CC2)CN3)c1 [Compound 257, 2-(1-(3-(4′-Chloro-1′,2′-dihydrospiro[cyclopentane-1,3′-pyrrolo[2,3-b]pyridin]-3-en-5′-yl)phenyl)-5-methyl-1H-pyrazol-3-yl)acetonitrile]"
